# Test results from patent publication US11786595B2, “Methods for radiotherapy to trigger light activation drugs” (priority 2015, dated 2023).
# Experiments:
# B16 melanoma cells [1] = experiment: CellTiter-Glo luminescence (cell viability) versus TMP concentration, with or without Cherenkov light; type: cell-based; details: 6 MV x-rays at 2 Gy, 48-hour incubation, with Cherenkov light vs without
# B16 melanoma cells [2] = experiment: Flow cytometry of MHC class I expression after X-ray/Cherenkov exposure; type: cell-based; details: 72 hour incubation
# Acinetobacter baumannii = details: loaded into MCM-41 host, visible light 100 milliWatts per square centimeter; cited from earlier work
# [3] = system: Zaire Ebola virus (ZEBOV); details: cited from earlier work
# [4] = system: Venezuelan equine encephalitis virus (VEEV); details: cited from earlier work
molecule,measurement,setting,value
"Cc1cc2cc3c(C)cc(=O)oc3c(C)c2o1 [TMP, 4,5′,8-trimethyl psoralen]",cell viability / cell kill,B16 melanoma cells [1],cell viability is reduced
same,MHC 1 expression,B16 melanoma cells [2]; 15 MV X-ray exposure with Cherenkov light,13.7%
same,MHC 1 expression,B16 melanoma cells [2]; control with no Cherenkov (x-rays only),8.01%
same,MHC 1 expression,B16 melanoma cells [2]; control with no x-rays,5.46%
[Mn(PaPy3)(NO)](ClO4) [{Mn—NO}],clearing of bacteria by released nitric oxide,Acinetobacter baumannii,effectively cleared the bacteria
"[N-]=[N+]=Nc1cccc2c(I)cccc12 [INA, 1,5-iodonaphthyl-azide]",virus infectivity after INA treatment,[3],completely noninfectious
same,virus inactivation,[4],efficiently inactivate
